# Assay results reported in US20250154163A1, “Pyrimidinone-Containing 17-Beta-Hydroxysteroid Dehydrogenase Type 13 Inhibitors” (ENANTA PHARMACEUTICALS, INC., priority 2023, published 2025).
# Columns and labels:
# [1] = target: T1, Recombinant human 17β-HSD13 (Homo sapiens, UniProt Q7Z5P4); test: 17β-HSD13 rapid-fire mass spectrometry assay (RF/MS assay); format: biochemical; details: inhibition of 17β-HSD13, RF/MS assay; HSD17B13 80 nM, LTB4 10 μM, NAD+ 0.5 mM, RT 3 h
# T1 construct: host or cells: Sf9 insect cells
# T1 sequence (Q7Z5P4 20-300): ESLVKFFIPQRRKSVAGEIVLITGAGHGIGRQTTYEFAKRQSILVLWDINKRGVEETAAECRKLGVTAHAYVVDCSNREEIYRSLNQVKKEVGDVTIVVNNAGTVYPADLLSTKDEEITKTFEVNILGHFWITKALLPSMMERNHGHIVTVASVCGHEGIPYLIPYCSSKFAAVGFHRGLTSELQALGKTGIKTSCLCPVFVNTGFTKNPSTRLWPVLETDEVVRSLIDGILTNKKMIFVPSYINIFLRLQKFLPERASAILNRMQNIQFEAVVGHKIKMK
# Excerpt: 17(3-HSD13 rapid-fire mass spectrometry assay (RF/MS assay). Recombinant human 17β-HSD13 was expressed and purified from sf9 cells at Charles River Labs (Saffron Walden, UK). Leukotriene B4 (Catalog #71160-24-2) and 12-oxoleukotriene B4 (Catalog #20140) were purchased from Cayman Chemicals (Ann Arbor, MI). NAD+ (Catalog #N8285), BSA (Catalog #A7030), DMSO (Catalog #D2650), and Tween-20 (Catalog #11332465001) were purchased from Sigma (St. Louis, MO). Formic acid (Catalog #28905) was from ThermoFisher Scientific and 384 deep well PP microplates (Catalog #784261) were from Greiner Bio-One. In a typical IC50 assay performed in a 384w PP microplate, test compounds (0-100 μM) were incubated with HSD17B13 (80 nM), LTB4 (10 μM), and NAD^+ (0.5 mM) in 10 μL assay buffer (20 mM Tris (pH 7.5), BSA (0.005%), and Tween-20 (0.01%)) at RT for 3 h. The assays were quenched by adding 20 μL of 0.15% aqueous formic acid and the plates were frozen at −80° C. RF/MS analysis was performed at PureHoney Technologies (Billerica, MA) on a RapidFire RF300 system (Agilent Technologies, Inc.) coupled to an API 4000 triple quadrupole mass spectrometer (Sciex) equipped with Agilent RapidFire cartridge type A (C4). The mobile phase was 0.09% formic acid and 0.01% trifluoracetic acid in water (Buffer A) and 0.09% formic acid and 0.01% trifluoracetic acid in 80% aqueous acetonitrile (Buffer B). The RapidFire method conditions were the following: 250 ms aspirate, 3000 ms load/desalt, 4000 ms elute, and 500 ms re-equilibrate. RF-MS/MS was performed in negative polarity (−4500 V), the source temperature was 650° C., and gas 1 and gas 2 settings for nitrogen were set to 50. The curtain gas and collision gas were also nitrogen and were set to 20 and 12, respectively. Leukotriene B4 (335.3) and 12-oxoLeukotriene B4 (333.3) SRM transitions were optimized with Discovery Quant software and extracted ion counts for these analytes were determined.
# Data Analysis. 17β-HSD13 enzyme activity was measured as percent conversion of extracted ion counts and normalized to high and low controls to determine percent residual activity at various concentrations of test compounds. Data was fitted to normalized activity (variable slope) versus concentration fit in GraphPad Prism 7 to determine IC50. All experiments were run in duplicates.
# By using the above method, the inhibition of 17β-HSD13 was evaluated for the compounds of Formula (I). IC50 ranges are as follows: A is <0.1 μM; B is 0.1 μM-1.0 μM; C is 1.0 μM-10 μm; and D is >10 μM.
# [2] = target: T2, human HSD17β13 (stable HEK293T cell line overexpressing human HSD17β13) (Homo sapiens, UniProt Q7Z5P4); test: HSD17β13 inhibitor cell-based screening assay (conversion of estradiol-d2 to estrone-d2 by RF-MS); details: conversion of estradiol-d2 to estrone-d2 after 24 hours
# T2 construct: expressed in transfected cells
# T2 sequence (Q7Z5P4 20-300): T1 sequence (Q7Z5P4 20-300)
# In short: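 Cellular IC50 is based on 24-h conversion of estradiol-d2 (5 μM final) to estrone-d2, measured by RF-MS in acetonitrile-precipitated supernatants. Assay uses human HSD17β13-overexpressing HEK293T cells (7.5E3/well, 1% charcoal/dextran FBS MEM), with compounds dosed as a 9-point 1:3 series to 10 μM final. ATPlite luminescence on overexpressing and parent lines measured viability.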
Compound,IC50 [1] [nM],IC50 [2] [nM]
"COc1ccc(-c2nc3sc4c(O)cccc4c3c(=O)n2Cc2ocnc2F)c(C2CC2)c1 [Example 25, 2-(2-cyclopropyl-4-methoxyphenyl)-3-((4-fluorooxazol-5-yl)methyl)-8-hydroxybenzo[4,5]thieno[2,3-d]pyrimidin-4(3H)-one]",< 100,100 to 500
"Cc1ncc(Cn2c(-c3ccc(F)cc3C3CC3)nc3sc4c(O)c(Cl)ccc4c3c2=O)o1 [Example 44, 7-chloro-2-(2-cyclopropyl-4-fluorophenyl)-8-hydroxy-3-((2-methyloxazol-5-yl)methyl)benzo[4,5]thieno[2,3-d]pyrimidin-4(3H)-one]",< 100,< 100
"COc1ccc(-c2nc3sc4c(O)c(Cl)ccc4c3c(=O)n2Cc2cc(C(F)(F)F)no2)c(C2CC2)c1 [Example 48, 7-chloro-2-(2-cyclopropyl-4-methoxyphenyl)-8-hydroxy-3-((3-(trifluoromethyl)isoxazol-5-yl)methyl)benzo[4,5]thieno[2,3-d]pyrimidin-4(3H)-one]",< 100,< 100
"COc1ccc(-c2nc3sc4c(F)cccc4c3c(=O)n2Cc2cnco2)c(C2CC2)c1 [Example 13, 2-(2-cyclopropyl-4-methoxyphenyl)-8-fluoro-3-(oxazol-5-ylmethyl)benzo[4,5]thieno[2,3-d]pyrimidin-4(3H)-one]",> 10000,1000 to 100000
"COc1ccc(-c2nc3sc4c(O)c(Br)ccc4c3c(=O)n2Cc2cnco2)c(C2CC2)c1 [Example 24, 7-bromo-2-(2-cyclopropyl-4-methoxyphenyl)-8-hydroxy-3-(oxazol-5-ylmethyl)benzo[4,5]thieno[2,3-d]pyrimidin-4(3H)-one]",< 100,< 100
"CCCCc1cccc2c1sc1nc(-c3ccc(OC)cc3C3CC3)n(Cc3cnco3)c(=O)c12 [Example 10, 8-butyl-2-(2-cyclopropyl-4-methoxyphenyl)-3-(oxazol-5-ylmethyl)benzo[4,5]thieno[2,3-d]pyrimidin-4(3H)-one]",> 10000,100 to 500
O=c1c2c(nc(-c3cc(F)c(C(F)F)cc3C3CC3)n1Cc1cnc(C(F)(F)F)nc1)sc1c(O)c(Cl)ccc12 [Example 176],< 100,< 100
"O=c1c2c(nc(-c3ccc(F)cc3C3CC3)n1Cc1cnco1)sc1c(O)c(Cl)ccc12 [Example 42, 7-chloro-2-(2-cyclopropyl-4-fluorophenyl)-8-hydroxy-3-(oxazol-5-ylmethyl)benzo[4,5]thieno[2,3-d]pyrimidin-4(3H)-one]",< 100,< 100
O=c1c2c(nc(-c3cc(F)c(C(F)F)cc3C3CC3)n1Cc1cc(C(F)(F)F)no1)sc1c(O)c(Cl)ccc12 [Example 175],< 100,< 100
"COc1ccc(-c2nc3sc4c(OCCO)cccc4c3c(=O)n2Cc2cnco2)c(C2CC2)c1 [Example 20, 2-(2-cyclopropyl-4-methoxyphenyl)-8-(2-hydroxyethoxy)-3-(oxazol-5-ylmethyl)benzo[4,5]thieno[2,3-d]pyrimidin-4(3H)-one]",> 10000,1000 to 100000
"COc1ccc(-c2nc3sc4c(O)c(N)ccc4c3c(=O)n2Cc2cnco2)c(C2CC2)c1 [Example 28, 7-amino-2-(2-cyclopropyl-4-methoxyphenyl)-8-hydroxy-3-(oxazol-5-ylmethyl)benzo[4,5]thieno[2,3-d]pyrimidin-4(3H)-one]",100 to 1000,1000 to 100000
"CCc1ncc(Cn2c(-c3ccc(OC)cc3C3CC3)nc3sc4c(O)c(Cl)ccc4c3c2=O)s1 [Example 41, 7-chloro-2-(2-cyclopropyl-4-methoxyphenyl)-3-((2-ethylthiazol-5-yl)methyl)-8-hydroxybenzo[4,5]thieno[2,3-d]pyrimidin-4(3H)-one]",< 100,< 100
O=c1c2c(nc(-c3cc(OC(F)(F)F)ccc3C3CC3)n1Cc1cnco1)sc1c(O)c(Cl)ccc12 [Example 143],< 100,< 100
"COc1ccc(-c2nc3sc4c(O)c(Cl)ccc4c3c(=O)n2Cc2cc(C)no2)c(C2CC2)c1 [Example 39, 7-chloro-2-(2-cyclopropyl-4-methoxyphenyl)-8-hydroxy-3-((3-methylisoxazol-5-yl)methyl)benzo[4,5]thieno[2,3-d]pyrimidin-4(3H)-one]",< 100,< 100
"COc1ccc(-c2nc3sc4c(O[C@@H]5O[C@H](C(=O)O)[C@@H](O)[C@H](O)[C@H]5O)cccc4c3c(=O)n2Cc2cnco2)c(C2CC2)c1 [Example 17, (2S,3S,4S,5R,6S)-6-((2-(2-cyclopropyl-4-methoxyphenyl)-3-(oxazol-5-ylmethyl)-4-oxo-3,4-dihydrobenzo[4,5]thieno[2,3-d]pyrimidin-8-yl)oxy)-3,4,5-trihydroxytetrahydro-2H-pyran-2-carboxylic acid]",1000 to 10000,1000 to 100000
"COc1ccc(-c2nc3sc4c(ccc5[nH]c(=O)[nH]c54)c3c(=O)n2Cc2cnco2)c(C2CC2)c1 [Example 30, 8-(2-cyclopropyl-4-methoxyphenyl)-7-(oxazol-5-ylmethyl)-3,7-dihydro-1H-imidazo[4″,5″:3′,4′]benzo[1′,2′:4,5]thieno[2,3-d]pyrimidine-2,6-dione]",> 10000,1000 to 100000
"COc1cc(C2CC2)c(-c2nc3sc4c(O)c(Cl)ccc4c3c(=O)n2Cc2cnco2)cc1F [Example 76, 7-chloro-2-(2-cyclopropyl-5-fluoro-4-methoxyphenyl)-8-hydroxy-3-(oxazol-5-ylmethyl)benzo[4,5]thieno[2,3-d]pyrimidin-4(3H)-one]",< 100,< 100
"CCCc1ccc2c(sc3nc(-c4ccc(OC)cc4C4CC4)n(Cc4cnco4)c(=O)c32)c1O [Example 22, 2-(2-cyclopropyl-4-methoxyphenyl)-8-hydroxy-3-(oxazol-5-ylmethyl)-7-propylbenzo[4,5]thieno[2,3-d]pyrimidin-4(3H)-one]",1000 to 10000,1000 to 100000
O=c1c2c(nc(-c3ccc(C(F)(F)F)cc3C3CC3)n1Cc1cnco1)sc1c(O)c(Cl)ccc12 [Example 135],< 100,< 100
O=c1c2c(nc(-c3cc(F)c(C(F)(F)F)cc3C3CC3)n1Cc1cnco1)sc1c(O)c(Cl)ccc12 [Example 133],< 100,< 100
COc1ccc(-c2nc3sc4c(O)c(Cl)ccc4c3c(=O)n2Cc2cnco2)c(C2CCC2)c1 [Example 117],< 100,100 to 500
O=c1ccc(Cn2c(-c3cc(F)c(F)cc3C3CC3)nc3sc4c(O)c(Cl)ccc4c3c2=O)c[nH]1 [Example 169],< 100,< 100
"O=c1c2c(nc(-c3cc(F)c(F)cc3C3CC3)n1Cc1cnc(C(F)(F)F)nc1)sc1c(O)c(Cl)ccc12 [Example 63, 7-chloro-2-(2-cyclopropyl-4,5-difluorophenyl)-8-hydroxy-3-((2-(trifluoromethyl)pyrimidin-5-yl)methyl)benzo[4,5]thieno[2,3-d]pyrimidin-4(3H)-one]",< 100,< 100
"COc1ccc(-c2nc3sc4c(C(N)=O)cccc4c3c(=O)n2Cc2cnco2)c(C2CC2)c1 [Example 3, 2-(2-cyclopropyl-4-methoxyphenyl)-3-(oxazol-5-ylmethyl)-4-oxo-3,4-dihydrobenzo[4,5]thieno[2,3-d]pyrimidine-8-carboxamide]",1000 to 10000,1000 to 100000
O=c1c2c(nc(-c3cc(Cl)c(F)cc3C3CC3)n1Cc1cnco1)sc1c(O)c(Cl)ccc12 [Example 138],< 100,< 100
